Test results published in ChEMBL document CHEMBL1201862, “PubChem BioAssay data set” (2004).
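A five-concentration, 48-hour dose response in 96-well plates underlies each endpoint, interpolated linearly between surrounding concentrations. GI50 = concentration required for 50% inhibition of growth.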 Active and inactive are the calls of the source. Rule as the data show it: active = GI50 up to about 1.1 µM and inactive = higher.

What was measured:
Assay in all cases: NCI tumour cell line growth inhibition, 48 h
[1] = system: COLO 205
[2] = system: HOP-62
[3] = system: RPMI-8226
[4] = system: UO-31
[5] = system: MDA-N
[6] = system: IGROV-1
[7] = system: SNB-19
[8] = system: MDA-MB-435
[9] = system: ACHN
[10] = system: SN12C
[11] = system: MCF7
[12] = system: SR
[13] = system: CCRF-CEM
[14] = system: HCT-15
[15] = system: SW-620
[16] = system: A549
[17] = system: SF-539
[18] = system: TK-10
[19] = system: LOX IMVI

| SMILES | GI50 [1] | GI50 [2] | GI50 [3] | GI50 [4] | GI50 [5] | GI50 [6] | GI50 [7] | GI50 [8] | GI50 [9] | GI50 [10] | GI50 [11] | GI50 [12] | GI50 [13] | GI50 [14] | GI50 [15] | GI50 [16] | GI50 [17] | GI50 [18] | GI50 [19] |
| --- | --- | --- | --- | --- | --- | --- | --- | --- | --- | --- | --- | --- | --- | --- | --- | --- | --- | --- | --- |
| O=c1c2cc(-c3ccccc3)cnc2sn1-c1ccc(Br)cc1 | > 100 µM (inactive) | > 100 µM (inactive) | > 100 µM (inactive) | > 100 µM (inactive) | > 100 µM (inactive) | 58.1 µM (inactive) | > 100 µM (inactive) | > 100 µM (inactive) | > 100 µM (inactive) | > 100 µM (inactive) | > 100 µM (inactive) | > 100 µM (inactive) | 95.5 µM (inactive) | 88.9 µM | > 100 µM (inactive) | > 100 µM (inactive) | > 100 µM (inactive) | – | – |
| CN(C)c1ccc(/C=C(\NC(=O)c2ccccc2)c2nc3ccccc3c(=O)o2)cc1 | > 100 µM (inactive) | 71.1 µM (inactive) | > 100 µM (inactive) | > 100 µM (inactive) | 83.4 µM (inactive) | > 100 µM (inactive) | > 100 µM (inactive) | > 100 µM (inactive) | > 100 µM (inactive) | > 100 µM (inactive) | 70.5 µM (inactive) | – | > 100 µM (inactive) | > 100 µM | > 100 µM (inactive) | > 100 µM (inactive) | > 100 µM (inactive) | > 100 µM (inactive) | > 100 µM (inactive) |
| CN(C)CCNC(=O)c1cccc(CO)c1[N+](=O)[O-] | > 100 µM (inactive) | > 100 µM (inactive) | – | > 100 µM (inactive) | > 100 µM (inactive) | > 100 µM (inactive) | > 100 µM (inactive) | > 100 µM (inactive) | > 100 µM (inactive) | > 100 µM (inactive) | > 100 µM (inactive) | > 100 µM (inactive) | > 100 µM (inactive) | > 100 µM | > 100 µM (inactive) | > 100 µM (inactive) | > 100 µM (inactive) | > 100 µM (inactive) | – |
| Cn1c(=O)c2c(nc3n2CC(C(=O)O)N3)n(C)c1=O (centres undefined) | > 100 µM (inactive) | > 100 µM (inactive) | > 100 µM (inactive) | > 100 µM (inactive) | > 100 µM (inactive) | > 100 µM (inactive) | > 100 µM (inactive) | > 100 µM (inactive) | > 100 µM (inactive) | > 100 µM (inactive) | > 100 µM (inactive) | – | – | > 100 µM | > 100 µM (inactive) | > 100 µM (inactive) | > 100 µM (inactive) | > 100 µM (inactive) | > 100 µM (inactive) |
| C1CSCCCSCCSCCCSC1 | > 100 µM (inactive) | > 100 µM (inactive) | > 100 µM (inactive) | > 100 µM (inactive) | > 100 µM (inactive) | > 100 µM (inactive) | > 100 µM (inactive) | > 100 µM (inactive) | > 100 µM (inactive) | > 100 µM (inactive) | > 100 µM (inactive) | – | – | > 100 µM | > 100 µM (inactive) | > 100 µM (inactive) | > 100 µM (inactive) | > 100 µM (inactive) | > 100 µM (inactive) |
| CCN(CC)CCNc1nc2ccc([N+](=O)[O-])cc2[n+]([O-])n1 | 2.84 µM (inactive) | – | 14.7 µM (inactive) | 37.6 µM (inactive) | 14.9 µM (inactive) | 15.7 µM (inactive) | 41.4 µM (inactive) | 16.1 µM (inactive) | 36.8 µM (inactive) | 19 µM (inactive) | 2.24 µM (inactive) | 18.4 µM (inactive) | 27 µM (inactive) | 11.5 µM | 16.2 µM (inactive) | 21.1 µM (inactive) | 23.3 µM (inactive) | 43.1 µM (inactive) | – |
| C#CCn1c(=O)c2ccccc2n(CC#C)c1=O | > 10 µM (inactive) | > 10 µM (inactive) | > 10 µM (inactive) | > 10 µM (inactive) | > 10 µM (inactive) | > 10 µM (inactive) | > 10 µM (inactive) | > 10 µM (inactive) | > 10 µM (inactive) | > 10 µM (inactive) | > 10 µM (inactive) | – | > 10 µM (inactive) | > 10 µM | > 10 µM (inactive) | > 10 µM (inactive) | > 10 µM (inactive) | > 10 µM (inactive) | > 10 µM (inactive) |
| O=C1CC2(CCC(O)(c3ccc(Cl)cc3)C(C(=O)c3ccc(Cl)cc3)C2)C(=O)c2ccccc2N1 (centres undefined) | 5.74 µM (inactive) | 3.35 µM (inactive) | 18.6 µM (inactive) | 17.6 µM (inactive) | 15.2 µM (inactive) | > 26.3 µM (inactive) | 2.26 µM (inactive) | > 29.9 µM (inactive) | 3.64 µM (inactive) | 5.68 µM (inactive) | 22.7 µM (inactive) | – | 4.61 µM (inactive) | > 42.7 µM | 27.4 µM (inactive) | 12.5 µM (inactive) | 3.42 µM (inactive) | 9.86 µM (inactive) | 11.7 µM (inactive) |
| CC(=O)OC1CC2CCC1(C)C2(C)C (centres undefined) | > 100 µM (inactive) | > 100 µM (inactive) | > 100 µM (inactive) | > 100 µM (inactive) | > 100 µM (inactive) | > 100 µM (inactive) | > 100 µM (inactive) | > 100 µM (inactive) | > 100 µM (inactive) | > 100 µM (inactive) | > 100 µM (inactive) | – | > 100 µM (inactive) | > 100 µM | > 100 µM (inactive) | – | > 100 µM (inactive) | > 100 µM (inactive) | > 100 µM (inactive) |
| CN(C)c1ccc(C2C(Cl)C(=O)N2NC(=O)c2c(Cl)c(Cl)c(Cl)c(Cl)c2-c2nc3ccccc3[nH]2)cc1 (centres undefined) | 7.67 µM (inactive) | – | – | 19.4 µM (inactive) | 5.77 µM (inactive) | 1.62 µM (inactive) | 30.3 µM (inactive) | 4.76 µM (inactive) | 15.8 µM (inactive) | 11.1 µM (inactive) | 5.53 µM (inactive) | 0.685 µM (active) | 3.36 µM (inactive) | 12.9 µM | 4.29 µM (inactive) | 31.6 µM (inactive) | 7.89 µM (inactive) | – | 7.4 µM (inactive) |
| N=C(N)N/N=C/c1cc(Cl)cc(Cl)c1O | 34.2 µM (inactive) | > 100 µM (inactive) | 57.3 µM (inactive) | 29.7 µM (inactive) | 71.1 µM (inactive) | > 100 µM (inactive) | 94.2 µM (inactive) | 53.5 µM (inactive) | 56.6 µM (inactive) | 49.3 µM (inactive) | 44.6 µM (inactive) | – | 43.4 µM (inactive) | 26.1 µM | 97.5 µM (inactive) | > 100 µM (inactive) | 37.3 µM (inactive) | 69 µM (inactive) | 51.4 µM (inactive) |
| COC1C(O)=C2C(=O)OC(C)(O)/C=C/C=C\C=C/C=C/C(c3ccccc3)NC(=O)/C=C/C=C/C=C/C=C/C2(C)C1O (centres undefined) | 0.00124 µM (active) | 0.0121 µM (active) | 0.0111 µM (active) | 0.00984 µM (active) | 0.0275 µM (active) | 0.0165 µM (active) | 0.0258 µM (active) | 0.0193 µM (active) | 0.00488 µM (active) | 0.0142 µM (active) | 0.001 µM (active) | – | 0.383 µM (active) | < 0.001 µM | 0.00139 µM (active) | 0.00105 µM (active) | 0.0179 µM (active) | 0.00871 µM (active) | 0.00838 µM (active) |
| CN(/N=C/c1cccs1)c1ccc([N+](=O)[O-])cc1[N+](=O)[O-] | > 100 µM (inactive) | > 100 µM (inactive) | > 100 µM (inactive) | > 100 µM (inactive) | > 100 µM (inactive) | > 100 µM (inactive) | > 100 µM (inactive) | > 100 µM (inactive) | > 100 µM (inactive) | > 100 µM (inactive) | > 100 µM (inactive) | > 100 µM (inactive) | > 100 µM (inactive) | > 100 µM | > 100 µM (inactive) | > 100 µM (inactive) | > 100 µM (inactive) | > 100 µM (inactive) | – |
| O=[N+]([O-])c1cc2c(cc1/C=N/n1c(CO)nc3ccccc31)OCO2 | > 100 µM (inactive) | > 100 µM (inactive) | > 100 µM (inactive) | > 100 µM (inactive) | > 100 µM (inactive) | – | > 100 µM (inactive) | > 100 µM (inactive) | > 100 µM (inactive) | > 100 µM (inactive) | > 100 µM (inactive) | – | > 100 µM (inactive) | > 100 µM | > 100 µM (inactive) | > 100 µM (inactive) | > 100 µM (inactive) | > 100 µM (inactive) | > 100 µM (inactive) |
| CCCCN(CCCC)C1(c2cc3ccccc3s2)CCCCC1.[O-][Cl+3]([O-])([O-])O | 14.9 µM (inactive) | 15.1 µM (inactive) | – | 18.6 µM (inactive) | 15.4 µM (inactive) | 15.5 µM (inactive) | 18.7 µM (inactive) | 13.3 µM (inactive) | 16.6 µM (inactive) | 21.4 µM (inactive) | 17.3 µM (inactive) | 16.3 µM (inactive) | 12.1 µM (inactive) | 15.5 µM | 15 µM (inactive) | 18.2 µM (inactive) | 19.1 µM (inactive) | 17.3 µM (inactive) | 13.9 µM (inactive) |
| O=C(O)C1OC1(c1cccc(Cl)c1)c1ccccc1Cl (centres undefined) | 53.3 µM (inactive) | 23.9 µM (inactive) | 31.1 µM (inactive) | 20.8 µM (inactive) | 23.6 µM (inactive) | 34.9 µM (inactive) | 33.9 µM (inactive) | 22.9 µM (inactive) | 31.7 µM (inactive) | 23 µM (inactive) | 29.4 µM (inactive) | – | 11.2 µM (inactive) | 6.76 µM | 20.7 µM (inactive) | 35.8 µM (inactive) | 25.9 µM (inactive) | 31.5 µM (inactive) | 18 µM (inactive) |
